According to US6984520B1, “Bioassay for thyroid stimulating antibodies” (University of Wales College of Medicine, priority 1997, dated 2006):

Columns and labels:
[1] = molecular target: T1, human TSH-R (Homo sapiens, UniProt P16473); experiment: luminescent bioassay: light output of lulu 1 cells (JP09 CHO cells expressing human TSH-R, transfected with cAMP-luciferase); type: cell-based; details: concentration as in row: TSH 1 mU/ml, TSAb (90/672) 10 mlU/ml, Forskolin 10^-5M
T1 construct: a pSVL vector containing the coding region of human TSH-R; expressed in transfected cells; host or cells: CHO-K1 clone JP09 (pSVL-hTSHR), further transfected with cAMP-luciferase to give lulu 1 cells
T1 sequence (P16473 21-764): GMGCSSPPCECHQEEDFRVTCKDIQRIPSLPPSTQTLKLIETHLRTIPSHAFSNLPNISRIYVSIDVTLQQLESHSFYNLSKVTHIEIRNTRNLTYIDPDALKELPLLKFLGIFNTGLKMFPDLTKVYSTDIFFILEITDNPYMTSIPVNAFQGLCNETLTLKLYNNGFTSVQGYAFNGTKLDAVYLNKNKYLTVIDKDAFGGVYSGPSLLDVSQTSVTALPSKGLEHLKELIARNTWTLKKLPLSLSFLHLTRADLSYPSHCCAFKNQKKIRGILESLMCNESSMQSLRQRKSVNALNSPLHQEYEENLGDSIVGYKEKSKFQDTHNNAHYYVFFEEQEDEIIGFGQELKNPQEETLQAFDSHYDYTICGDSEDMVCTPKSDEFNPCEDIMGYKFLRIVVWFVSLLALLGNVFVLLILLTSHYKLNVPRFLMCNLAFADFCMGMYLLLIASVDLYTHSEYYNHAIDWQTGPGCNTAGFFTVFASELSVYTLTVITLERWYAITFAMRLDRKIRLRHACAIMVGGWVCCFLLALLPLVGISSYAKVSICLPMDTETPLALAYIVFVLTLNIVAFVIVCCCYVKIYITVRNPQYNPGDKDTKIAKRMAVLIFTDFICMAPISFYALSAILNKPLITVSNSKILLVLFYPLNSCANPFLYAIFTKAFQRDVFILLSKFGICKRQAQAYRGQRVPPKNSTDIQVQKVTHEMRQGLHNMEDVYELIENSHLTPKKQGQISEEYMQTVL
Procedure: Culture medium for the cells was RPMI; 10% foetal calf serum (FCS); 1% glutamine; 1% pyruvate; 2% penicillin/streptomycin (and 2.5 μg/ml puromycin, when amplifying cells for assay). 96 well plates were seeded with 5×10^4 cells prepared according to Example 1 and cultured overnight (approximately 16 hours) at 37° C. in a water-saturated incubator. They were then cultured for a second night in medium containing 10% charcoal stripped calf serum instead of FCS (available from Gibco). Basal light output was measured, in triplicate wells, in the presence of 100 μl of the medium containing 10% charcoal stripped serum. […] The final result was expressed as relative light units (RLU) obtained by the ratio of standard:basal or test:basal.
Following the incubation period, supernatants were removed from the wells and the cells are washed twice in phosphate buffered saline. Light output was measured using a commercially-available kit from the Promega Corporation, no. […]
The selected clones were cultured overnight in medium with 10% charcoal-stripped calf serum (Sigma) in place of FCS, followed by 4 hours' incubation with varying concentrations of bovine TSH. Light output was measured by luciferase reporter assay (Promega) in a Berthold luminometer. Results were calculated as the ratio of light output in the presence of TSH:light output in the absence of TSH and expressed as relative light units (RLUs). […]

[2] = molecular target: T1, human TSH-R; experiment: traditional bioassay: cAMP released into culture medium of lulu 1 cells, measured by RIA; type: cell-based; details: NaCl-free Hank's medium, 2 mM IBMX, TSH 1 mU/ml, TSAb (90/672) 10 mlU/ml
Procedure: 44 of the GD sera described above, (35 TBII (TSH-R) positive) and the TSAb standard, were also assayed in a traditional bioassay in which CAMP released into the culture medium was measured by RIA. Lulu 1 were seeded in 96 well plates and the assay was performed in 100 μl/well NaCl-free Hank's medium, containing 2 mM IBMX and 10 μl individual GD or pooled euthyroid serum. CAMP was measured by the CAMP [^3H] assay system (Amersham) as described by Ludgate et al in Exp Clin Endo 100 73–4.

RLUs (mean luminometer readings (n=3) with background light emission subtracted) [1]: 1293 RLUs
pmole cAMP (mean, n=2) [2]: 9.4 pmol
Substance: thyrotropin [TSH]
